For experiment [1], the target named is C-terminal domain (CTD) of human STING (Homo sapiens, UniProt Q86WV6). Put plainly: STING binding FP assay III. Set-up: recombinant human STING protein (155-379). The note with it: 10 nM STING (FP assay III according to the text); read-out: STING binding FP assay II, IC50. The protocol: The interaction between molecules and the C-terminal domain (CTD) of human STING was evaluated using a competition binding assay. In this assay, recombinant human STING protein (155-379) and a STING binding fluorescent probe were employed. Upon binding of the probe to STING, the rotation of the fluorescent probe is slowed due to the larger molecular size of the protein-bound complex. As a result, emitted light retains its plane of polarization, leading to an increase in fluorescence polarization. Molecules competing for the probe binding site displace the probe, which leads to rapid randomization of the polarization plane of the emitted light and a subsequent decrease in measured fluorescence polarization signal. Change in polarization was measured, allowing a comparative evaluation of the binding affinities of different compounds to the target protein.
The assay was performed in 96-well plates (ThermoFisher, cat.# 237108) containing 100µl : 10 µL test compound in 10% DMSO and buffer A (150 mM NaCl, 50 mM HEPES pH 7.5, 1 mM DTT) + 90 µL prepared master mix solution of: 4 nM fluorescein-labelled STING ligand (Probe 1; synthesis described above) in buffer A + 0.055% Tween-20 (v/v) and 35 nM STING in buffer A. Post mixing, plates were agitated at 600rpm and incubated for 20 min at room temperature. Subsequent measurements of the fluorescence polarization signal were made on a BioTek Synergy-H1 plate reader, using a polarization filter; Exc: 485/20 nm, Em: […]) with a gain-setting of 75. IC50 values were determined using a standard non-linear regression four-parameter curve fit in Graphpad Prism.
The procedure for STING binding FP assay III is the same as described for STING binding FP assay I, except for a lower STING concentration. In STING binding FP assay III, a concentration of 10 nM STING in buffer A was used.

A further experiment concerns the target STING (Homo sapiens, UniProt Q86WV6). As to the kind of experiment: Western Blot analysis of inhibition of STING activation in HFF-1 cells. Set-up: host or cells: HFF-1 human foreskin fibroblasts. It counts as cell-based. The conditions noted are these: for STING, TBK1 and IRF1 phosphorylation: 2 h or 5 h; for phosphorylation of STING, IRF1 or TBK1 (agonism): compound as single agent, no activation. The protocol: To assess whether S1 STING ligands inhibit STING activation, primary human skin fibroblasts (Figure 5) or HFF-1 cells (Figure 6) were treated with various compounds which comprise only an S1 ligand domain and a Linker domain before undergoing Western Blot analysis as described below.
The cells were lysed and analysed on WB. […] The WB membrane was probed for p-STING, STING, p-IRF3, p-TBK1, and Vinculin.
In general terms: A western blot detects proteins with antibodies after separation by electrophoresis.

The mark [2] stands for this setting: 5 µM for 15 min prior to 300 nM diABZI.
Setting [3] is: 5 µM for 15 min prior to 8 µg/mL cGAMP.

The results in this text go back to patent EP4663632A1, “COMPOUNDS USEFUL FOR THE MODULATION OF THE ACTIVITY OF STING” (Sulis Therapeutics ApS, priority 2024, dated 2025).

C-terminal domain (CTD) of human STING, sequence (Q86WV6 155-379): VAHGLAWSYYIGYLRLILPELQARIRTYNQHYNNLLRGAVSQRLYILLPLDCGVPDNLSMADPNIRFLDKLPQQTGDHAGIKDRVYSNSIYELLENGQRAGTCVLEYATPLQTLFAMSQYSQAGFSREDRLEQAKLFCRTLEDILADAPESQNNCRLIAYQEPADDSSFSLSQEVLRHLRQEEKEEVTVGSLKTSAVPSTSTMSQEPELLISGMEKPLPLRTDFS
STING, sequence (Q86WV6 whole entry, the tested form may be a part): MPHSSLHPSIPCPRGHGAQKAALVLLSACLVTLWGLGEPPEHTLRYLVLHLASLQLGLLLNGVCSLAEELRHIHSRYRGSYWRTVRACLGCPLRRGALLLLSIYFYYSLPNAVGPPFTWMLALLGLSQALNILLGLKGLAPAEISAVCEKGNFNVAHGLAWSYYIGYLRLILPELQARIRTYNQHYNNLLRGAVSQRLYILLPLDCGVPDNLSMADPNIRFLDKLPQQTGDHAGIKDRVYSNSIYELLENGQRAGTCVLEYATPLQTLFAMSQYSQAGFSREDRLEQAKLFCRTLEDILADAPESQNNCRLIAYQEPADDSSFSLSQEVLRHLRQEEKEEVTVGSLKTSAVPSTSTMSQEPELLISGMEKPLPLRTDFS

On to “N-(2-{1-[4-(N-2,6-Dioxo-3-piperidylcarbamoyl)-3-chlorophenyl]-4-piperidyl}ethyl)15-{[(3-{5-carbamoyl-2-[(1-ethyl-3-methyl-5-pyrazolyl)carbonylimino]-3-methyl-2,3-dihydro-1H-1 ,3-benzimidazol-1-yl}-1-(2-{5-carbamoyl-2-[(1-ethyl-3-methyl-5-pyrazolyl)carbonylimino]-3-methyl-2,3-dihydro-1H-1 ,3-benzimidazol-1-yl}ethyl)propoxy)methyl]carbonylamino}-4,7,10,13-tetraoxapentadecanamide [Example 37]”, for which the IC50 in experiment [1] was determined as 3.7 nM. The same measure, in the same setting: as for `CCn1nc(C)cc1C(=O)Nc1nc2cc(C(N)=O)ccc2n1CCC(CCn1c(NC(=O)c2cc(C)nn2CC)nc2cc(C(N)=O)ccc21)OCC(=O)NCCOCCOCCOCC(=O)N[C@H](C(=O)N1C[C@H](O)C[C@H]1C(=O)NCc1ccc(-c2scnc2C)cc1)C(C)(C)C` [Example 4, N-[(S)-1-{[(2S,4R)-4-Hydroxy-2-({[p-(4-methyl-1,3-thiazol-5-yl)phenyl]methyl}carbamoyl)-1-pyrrolidinyl]carbonyl}-2,2-dimethylpropyl]11-[({3-[5-carbamoyl-2-(1-ethyl-3-methyl-5-pyrazolylcarbonylamino)-1H-1,3-benzimidazol-1-yl]-1-{2-[5-carbamoyl-2-(1-ethyl-3-methyl-5-pyrazolylcarbonylamino)-1H-1,3-benzimidazol-1-yl]ethyl}propoxy}methyl)carbonylamino]-3,6,9-trioxaundecanamide], the figure is 2.2 nM; as for `CCn1nc(C)cc1C(=O)N=c1n(C)c2cc(C(N)=O)ccc2n1CCC(CCn1c(=NC(=O)c2cc(C)nn2CC)n(C)c2cc(C(N)=O)ccc21)OCC(=O)NCCOCCOCCOCCOCCC(=O)NCCC1CCN(c2ccc(C(=O)NC3CCC(=O)NC3=O)c(OC)c2)CC1` (centres unmarked) [Example 35, N-(2-{1-[4-(N-2,6-Dioxo-3-piperidylcarbamoyl)-3-methoxyphenyl]-4-piperidyl}ethyl)15-{[(3-{5-carbamoyl-2-[(1-ethyl-3-methyl-5-pyrazolyl)carbonylimino]-3-methyl-2,3-dihydro-1H-1 ,3-benzimidazol-1-yl}-1-(2-{5-carbamoyl-2-[(1-ethyl-3-methyl-5-pyrazolyl)carbonylimino]-3-methyl-2,3-dihydro-1H-1 ,3-benzimidazol-1-yl}ethyl)propoxy)methyl]carbonylamino}-4,7,10,13-tetraoxapentadecanamide], 10.3 nM; as for `CCn1nc(C)cc1C(=O)N=c1n(C)c2cc(C(N)=O)ccc2n1CCC(CCn1c(=NC(=O)c2cc(C)nn2CC)n(C)c2cc(C(N)=O)ccc21)OCC(=O)NCCOCCOCCOCCOCCC(=O)NCCOCCOCCOCC(=O)N[C@H]1C[C@@H](C(=O)N[C@@H]2CCCc3ccccc32)N(C(=O)[C@@H](NC(=O)[C@H](C)NC)C2CCCCC2)C1` (some centres unmarked) [Example 18], 3.5 nM. In the case of `CCn1nc(C)cc1C(=O)N=c1n(C)c2cc(C(N)=O)ccc2n1CCC(CCn1c(=NC(=O)c2cc(C)nn2CC)n(C)c2cc(C(N)=O)ccc21)OCC(=O)NCCOCCOCCOCCOCCC(=O)NCCOCCNc1ccc(C(=O)NC2CCC(=O)NC2=O)c(OC)c1` (centres unmarked) [Example 34, N-(2-{2-[4-(N-2,6-Dioxo-3-piperidylcarbamoyl)-3-anisidino]ethoxy}ethyl)15-{[(3-{5-carbamoyl-2-[(1-ethyl-3-methyl-5-pyrazolyl)carbonylimino]-3-methyl-2,3-dihydro-1H-1 ,3-benzimidazol-1-yl}-1-(2-{5-carbamoyl-2-[(1-ethyl-3-methyl-5-pyrazolyl)carbonylimino]-3-methyl-2,3-dihydro-1H-1 ,3-benzimidazol-1-yl}ethyl)propoxy)methyl]carbonylamino}-4,7,10,13-tetraoxapentadecanamide], the IC50 in experiment [1] was found to be 3.7 nM. As for `CCn1nc(C)cc1C(=O)N=c1n(C)c2cc(C(N)=O)ccc2n1CCC(CCn1c(=NC(=O)c2cc(C)nn2CC)n(C)c2cc(C(N)=O)ccc21)OCC(=O)NCCOCCOCCOCCOCCC(=O)N1CCN(C2CCN(c3ccc(C(=O)NC4CCC(=O)NC4=O)c(OC)c3)CC2)CC1` (centres unmarked) [Example 36, N-[15-(4-{1-[4-(N-2,6-Dioxo-3-piperidylcarbamoyl)-3-methoxyphenyl]-4-piperidyl}-1-piperazinyl)-15-oxo-3,6,9,12-tetraoxapentadecyl](3-{5-carbamoyl-2-[(1-ethyl-3-methyl-5-pyrazolyl)carbonylimino]-3-methyl-2,3-dihydro-1H-1 ,3-benzimidazol-1-yl}-1-(2-{5-carbamoyl-2-[(1-ethyl-3-methyl-5-pyrazolyl)carbonylimino]-3-methyl-2,3-dihydro-1 H-1 ,3-benzimidazol-1-yl}ethyl)propoxy)acetamide], the IC50 in experiment [1] was determined as 10 nM.

Take `CCn1nc(C)cc1C(=O)N=c1n(C)c2cc(C(N)=O)ccc2n1CCC(CCn1c(=NC(=O)c2cc(C)nn2CC)n(C)c2cc(C(N)=O)ccc21)OCC(=O)N1CCOC[C@@H]1c1ccccc1` (stereo partly drawn) [Example A30, 1-(3-{2-[(S)-3-Phenyl-4-morpholinyl]-2-oxoethoxy}-5-{5-carbamoyl-2-[(1-ethyl-3-methyl-5-pyrazolyl)carbonylimino]-3-methyl-2,3-dihydro-1H-1,3-benzimidazol-1-yl}pentyl)-2-[(1-ethyl-3-methyl-5-pyrazolyl)carbonylimino]-3-methyl-2,3-dihydro-1H-1,3-benzimidazole-5-carboxamide]: the results for the “STING, TBK1 and IRF1 phosphorylation” value on STING (setting [2]) and on STING (setting [3]) were “lower compared to cells treated with diABZI c3 alone” and “lower compared to cells treated with cGAMP alone”, respectively. Further, the “phosphorylation of STING, IRF1 or TBK1 (agonism)” value on STING is “no phosphorylation of STING, IRF1 or TBK1 was observed”. With `CCn1nc(C)cc1C(=O)N=c1n(C)c2cc(C(N)=O)ccc2n1CCC(CCn1c(=NC(=O)c2cc(C)nn2CC)n(C)c2cc(C(N)=O)ccc21)OCC(=O)NCCOCCOCCOCCOCCC(=O)NCCC1CCN(c2ccc(C(=O)NC3CCC(=O)NC3=O)c(F)c2)CC1` (centres unmarked) [Example 38, N-(2-{1-[4-(N-2,6-Dioxo-3-piperidylcarbamoyl)-3-fluorophenyl]-4-piperidyl}ethyl)15-{[(3-{5-carbamoyl-2-[(1-ethyl-3-methyl-5-pyrazolyl)carbonylimino]-3-methyl-2,3-dihydro-1 H-1 ,3-benzimidazol-1-yl}-1-(2-{5-carbamoyl-2-[(1-ethyl-3-methyl-5-pyrazolyl)carbonylimino]-3-methyl-2,3-dihydro-1 H-1 ,3-benzimidazol-1-yl}ethyl)propoxy)methyl]carbonylamino}-4,7,10,13-tetraoxapentadecanamide], in experiment [1], the IC50 amounted to 2.6 nM.

`CCn1nc(C)cc1C(=O)N=c1n(C)c2cc(C(N)=O)ccc2n1CCC(CCn1c(=NC(=O)c2cc(C)nn2CC)n(C)c2cc(C(N)=O)ccc21)OCC(=O)N1CCC[C@H]1c1ccccc1` (stereo partly drawn) [Example A25, 1-(3-{2-[(S)-2-Phenyl-1-pyrrolidinyl]-2-oxoethoxy}-5-{5-carbamoyl-2-[(1-ethyl-3-methyl-5-pyrazolyl)carbonylimino]-3-methyl-2,3-dihydro-1H-1,3-benzimidazol-1-yl}pentyl)-2-[(1-ethyl-3-methyl-5-pyrazolyl)carbonylimino]-3-methyl-2,3-dihydro-1H-1,3-benzimidazole-5-carboxamide]: the “STING, TBK1 and IRF1 phosphorylation” value on STING (setting [2]) is “lower compared to cells treated with diABZI c3 alone”; on STING (setting [3]) it was “lower compared to cells treated with cGAMP alone (with the exception of TBK1 in lane A25)”. Also, the “phosphorylation of STING, IRF1 or TBK1 (agonism)” value at STING is listed as “no phosphorylation of STING, IRF1 or TBK1 was observed”. Take `CCn1nc(C)cc1C(=O)N=c1n(C)c2cc(C(N)=O)ccc2n1CCC(CCn1c(=NC(=O)c2cc(C)nn2CC)n(C)c2cc(C(N)=O)ccc21)OCC(=O)NCCOCCOCCOCCOCCOCC(=O)N[C@H]1C[C@@H](C(=O)N[C@@H]2CCCc3ccccc32)N(C(=O)[C@@H](NC(=O)[C@H](C)NC)C2CCCCC2)C1` (some centres unmarked) [Example 13]: in experiment [1], the concentration for half-maximal inhibition (IC50) amounted to 4.1 nM.

For orientation: IC50 means the concentration needed to halve the response being measured.
